From the Kinase Knowledgebase extract (Sharma et al. 2016)

Molecular target: MAPK14 (human) (UniProt Q16539)
Assay: Enzyme Assay

Chain of MAPK14 (human) (Q16539 whole entry, looked up): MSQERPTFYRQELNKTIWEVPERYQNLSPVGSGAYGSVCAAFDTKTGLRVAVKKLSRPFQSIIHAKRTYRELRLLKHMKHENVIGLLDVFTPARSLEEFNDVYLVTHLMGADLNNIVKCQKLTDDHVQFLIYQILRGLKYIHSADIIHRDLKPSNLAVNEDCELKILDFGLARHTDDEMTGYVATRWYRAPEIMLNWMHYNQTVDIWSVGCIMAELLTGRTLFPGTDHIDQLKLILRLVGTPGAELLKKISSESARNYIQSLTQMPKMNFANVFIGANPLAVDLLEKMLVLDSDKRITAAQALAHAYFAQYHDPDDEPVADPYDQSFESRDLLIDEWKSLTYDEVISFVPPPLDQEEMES

SMILES	IC50 [nM]
Cc1ccc(-n2nc(C(C)(C)C)cc2NC(=O)N[C@H]2CC[C@@H](Oc3ccc4nnc(N)n4c3)c3ccccc32)cc1	< 10
Cc1ccc(-n2nc(C(C)(C)C)cc2NC(=O)N[C@H]2CC[C@@H](Oc3ccc4nnc(N5CCN(CCO)CC5)n4c3)c3ccccc32)cc1	< 10
Cc1ccc(-n2nc(C(C)(C)C)cc2NC(=O)N[C@H]2CC[C@@H](Oc3ccc4nnc(N5CCCOCC5)n4c3)c3ccccc32)cc1	< 10

Next, values leading:

IC50 [nM]	SMILES
< 10	CC(C)(C)c1cc(NC(=O)N[C@H]2CC[C@@H](Oc3ccc4nnc(N5CCCCC5)n4c3)c3ccccc32)n(-c2cnn(CCCN3CCOCC3)c2)n1
< 10	COCCN(C)Cc1ccc(-n2nc(C(C)(C)C)cc2NC(=O)N[C@H]2CC[C@@H](Oc3ccc4nnc(N5CCCC[C@@H]5C)n4c3)c3ccccc32)cc1
< 10	C[C@H]1CCCCN1c1nnc2ccc(O[C@@H]3CC[C@H](NC(=O)Nc4cc(C(C)(C)C)nn4CCN4CCCCC4)c4ccccc43)cn12
